Results as given in patent US9023763B2, “Modification of trehalose-6-phosphate levels in plants” (Isis Innovation Limited, priority 2011, dated 2015).
Where two headings read alike, the source gives them in different places.

Key:
[1] = In vitro deprotection under UV light and sunlight, followed by mass spectrometry/TLC and P NMR; format: physicochemical; conditions: for deprotection time: 5 mM in phosphate buffer pH 7.4
Text: Two experimental techniques were chosen for studying the progress of deprotection experiments i.e. i) Mass spectroscopy and TLC (spot), and ii) P NMR. Progress of the reactions was monitored by looking for the disappearance of peak corresponding to protected compounds and appearance of peak corresponding to T6P. The structure of completely uncaged compound i.e. T6P was established by 1D and 2D NMR.
Both experimental techniques were very efficient and reproducible to analyse the deprotection experiments. Five millimolar solutions of Examples 1 to 4 were prepared in phosphate buffer (pH 7.4) and the resulting solution was exposed to different wavelengths of UV light and sunlight to monitor deprotection at different time intervals.
After successful synthesis of protected-G6P(1-OMe) compounds their deprotection was carried out under various wavelength and power of UV light.

[2] = In-planta uptake after feeding to roots of seedlings, quantified by HPLC/LCMS; format: in vivo, Arabidopsis thaliana; conditions: for Uptake %: proportion of compound fed taken up by the plant, 72 h; for Uptake % / uptake in μg/10 mg of seedling / concentration at 72 h: Arabidopsis seedling; for uptake in μg/10 mg of seedling / concentration at 72 h: protected T6P compounds, after 72 h (3 days), n = 3; for concentration at 72 h: read-out: uptake in μg/10 mg of seedling; for in-planta uptake (in words): after 72 h
Method: Aqueous solutions of each of Examples 1 to 4 were fed to roots of seedlings of Arabidopsis thaliana and after a certain period of time the aerial (shoot) part of seedling was harvested carefully and extracted in H2O:MeOH (1:1) under liquid nitrogen to get crude fresh plant extract. The crude fresh plant extract thus obtained was analysed by mass spec and using HPLC to quantify the amount of compound taken up.
An aqueous solution of NB-T6P (Example 1) was fed to the seedlings, at 1 mM final concentration, near to the root and uptake was monitored in freshly prepared extract after 24 h, 48 h and 72 h using both HPLC and mass technique.
The quantitative analysis of the compounds taken up into the plant was carried out using freshly prepared plant extract by LCMS and summarised data are given in Table 2.

Arabidopsis thaliana = assay: Increased starch production in treated plants; format: in vivo; conditions: 0.1 mM in the media
Method: Pre-stratified Arabidopsis thaliana seeds were sown in sterile culture on 0.5 mL solid medium (0.5× Murashige and Skoog with Gamborg's vitamins, 0.5% agar) in 0.5 mL tubes pierced with a small hole in the bottom. Tubes were arrayed in polystyrene racks and floated in liquid medium without added sucrose in Phytatrays. Seedlings were grown under 12 hr days under fluorescent lights giving 250 μmo/m^2/s, and 23° C. day/18° C. night temperatures. At 16-20 days after sowing the liquid medium was removed and the tubes were sealed with electrician's tape. All plants were topped up with 0.5×MS medium with no sucrose. Plants were treated with compound example 3, or water by adding example 3 to a final concentration of 0.1 mM in the media. On the third day plants were subjected to growth lights supplemented with UV light (8 W UV bulb) from a Gelman transilluminator (Model 51438) at a distance of 6 cm for 8 h. Plants were allowed to recover for a further day and the aerial parts were harvested at the end of the day, weighed and frozen in liquid nitrogen. Starch was extracted according to published methods, converted to glucose and measured as nmol glucose/gram fresh weight (Nature Protocol 2006, 1, 1342). Results are depicted in FIG. 6.

SnRK1 = SnRK1 assay (Plant Physiol. 2009, 149, 1860-1871); format: biochemical
Method: The compounds synthesised in Examples 1 to 4 were tested against the known target for T6P in vitro i.e. SnRK1, using the assay described in Plant Physiol. 2009, 149, 1860-1871.
T6P deprotected by treatment of NB-T6P (Example 1) under deprotection conditions of 125 W/365 nm radiation was included in SnRK1 assays (carried out in accordance with Plant Physiol. 2009, 149, 1860-1871) to determine its inhibition effect and compared to commercially available T6P from Sigma. The results are depicted in FIG. 3.

[3] = Arabidopsis thaliana, in vivo, 1 mM

Compound | deprotection time of caged G6P(1-OMe) ([1]; 8 W/254 nm) | deprotection time of caged G6P(1-OMe) ([1]; 8 W/365 nm) | deprotection time of caged G6P(1-OMe) ([1]; 125 W/200-400 nm) | deprotection time of caged G6P(1-OMe) ([1]; 125 W/365 nm) | deprotection time of caged G6P(1-OMe) ([1]; Sun light) | deprotection time ([1]; 8 W/254 nm) | deprotection time ([1]; 8 W/365 nm) | deprotection time ([1]; 125 W/200-400 nm) | deprotection time ([1]; 125 W/365 nm) | deprotection time ([1]; Sun light) | Uptake % [2] | in-planta uptake (in words) [2] | further results
COC1OC(COP(=O)(OC(C)c2ccccc2[N+](=O)[O-])OC(C)c2ccccc2[N+](=O)[O-])C(O)C(O)C1O (mixture of isomers) [NPE-G6P(1-OMe)] | 2 h | 2 h | 0.75 h | 1.25 h | 10 h | – | – | – | – | – | – | – | –
COc1cc(COP(=O)(OCc2cc(OC)c(OC)cc2[N+](=O)[O-])OC[C@H]2O[C@H](OC)[C@H](O)[C@@H](O)[C@@H]2O)c([N+](=O)[O-])cc1OC [DMNB-G6P(1-OMe)] | 10 h | 10 h | 2 h | 2 h | 10 h | – | – | – | – | – | – | – | –
O=[N+]([O-])c1ccccc1COP(=O)(OCc1ccccc1[N+](=O)[O-])OCC1O[C@H](O[C@H]2OC(CO)[C@@H](O)C(O)C2O)C(O)C(O)[C@@H]1O (some centres unmarked) [Example 1, NB-T6P] | – | – | – | – | – | 240 min | 360 min | 15 min | 30 min | 360 min | 14% | – | concentration at 24 h ([2]; Arabidopsis thaliana, in vivo, 1 mM final concentration fed near the root, 24 h): 263000 ng/g; concentration at 48 h ([2]; Arabidopsis thaliana, in vivo, 1 mM final concentration fed near the root, 48 h): 605000 ng/g; uptake in μg/10 mg of seedling [2]: 26.39 μg/10 mg of seedling
COc1cc(COP(=O)(OCc2cc(OC)c(OC)cc2[N+](=O)[O-])OCC2O[C@H](O[C@H]3OC(CO)[C@@H](O)C(O)C3O)C(O)C(O)[C@@H]2O)c([N+](=O)[O-])cc1OC (some centres unmarked) [Example 2, DMNB-T6P] | – | – | – | – | – | 600 min | 600 min | 60 min | 60 min | 480 min | 1% | taken up by the plant | concentration at 72 h [2, 3]: 318000 ng/g; concentration at 72 h ([2]; Arabidopsis thaliana, in vivo): 318000 ng/g
CC(OP(=O)(OCC1O[C@H](O[C@H]2OC(CO)[C@@H](O)C(O)C2O)C(O)C(O)[C@@H]1O)OC(C)c1ccccc1[N+](=O)[O-])c1ccccc1[N+](=O)[O-] (some centres unmarked) [Example 3, NPE-T6P] | – | – | – | – | – | 90 min | 90 min | 10 min | 20 min | 90 min | 18% | taken up by the plant | uptake in μg/10 mg of seedling [2]: 66.0 μg/10 mg of seedling; increase in amount of starch produced relative to concentration of T6P released in-planta (Arabidopsis thaliana; 8 W UV for 8 h): tenfold higher; starch levels compared to plants treated with water only (Arabidopsis thaliana; growth lights plus 8 W UV bulb for 8 h on third day, harvested a day later, FIG. 6): significantly higher starch levels
COc1cc(COP(=O)(O)OCC2O[C@H](O[C@H]3OC(CO)[C@@H](O)C(O)C3O)C(O)C(O)[C@@H]2O)c([N+](=O)[O-])cc1OC (some centres unmarked) [Example 4, Mono-DMNB-T6P] | – | – | – | – | – | 600 min | 360 min | 45 min | 45 min | 360 min | 1% | taken up by the plant | concentration at 72 h [2, 3]: 360000 ng/g; concentration at 72 h ([2]; Arabidopsis thaliana, in vivo): 360000 ng/g
O=P(O)(O)OC[C@H]1O[C@H](O[C@H]2O[C@H](CO)[C@@H](O)[C@H](O)[C@H]2O)[C@H](O)[C@@H](O)[C@@H]1O [Example T6P, trehalose-6-phosphate] | – | – | – | – | – | – | – | – | – | – | – | – | SnRK1 inhibition (SnRK1; T6P obtained from deprotection of Example 1 (125 W/365 nm), 0.32 mM, FIG. 3): inhibits SnRK1 in the same way as commercially available T6P; SnRK1 inhibition (SnRK1; in vitro, in duplicate, FIG. 1): shows typical inhibition
COc1cc(COP(=O)(O)OC[C@H]2O[C@H](OC)[C@H](O)[C@@H](O)[C@@H]2O)c([N+](=O)[O-])cc1OC [Mono-DMNB-G6P(1-OMe)] | 10 h | 10 h | 1.25 h | 1.25 h | 8 h | – | – | – | – | – | – | – | –
CO[C@H]1O[C@H](COP(=O)(OCc2ccccc2[N+](=O)[O-])OCc2ccccc2[N+](=O)[O-])[C@@H](O)[C@H](O)[C@H]1O [NB-G6P(1-OMe)] | 6 h | 8 h | 0.75 h | 1.25 h | 8 h | – | – | – | – | – | – | – | –
